The target of this test is hTRPA1 (Homo sapiens, UniProt O75762). Description: whole-cell patch clamp of HEK293 cells expressing hTRPA1. It counts as cell-based. (The patch-clamp technique gives a direct electrical read-out from membranes.)
hTRPA1, sequence (O75762 whole entry): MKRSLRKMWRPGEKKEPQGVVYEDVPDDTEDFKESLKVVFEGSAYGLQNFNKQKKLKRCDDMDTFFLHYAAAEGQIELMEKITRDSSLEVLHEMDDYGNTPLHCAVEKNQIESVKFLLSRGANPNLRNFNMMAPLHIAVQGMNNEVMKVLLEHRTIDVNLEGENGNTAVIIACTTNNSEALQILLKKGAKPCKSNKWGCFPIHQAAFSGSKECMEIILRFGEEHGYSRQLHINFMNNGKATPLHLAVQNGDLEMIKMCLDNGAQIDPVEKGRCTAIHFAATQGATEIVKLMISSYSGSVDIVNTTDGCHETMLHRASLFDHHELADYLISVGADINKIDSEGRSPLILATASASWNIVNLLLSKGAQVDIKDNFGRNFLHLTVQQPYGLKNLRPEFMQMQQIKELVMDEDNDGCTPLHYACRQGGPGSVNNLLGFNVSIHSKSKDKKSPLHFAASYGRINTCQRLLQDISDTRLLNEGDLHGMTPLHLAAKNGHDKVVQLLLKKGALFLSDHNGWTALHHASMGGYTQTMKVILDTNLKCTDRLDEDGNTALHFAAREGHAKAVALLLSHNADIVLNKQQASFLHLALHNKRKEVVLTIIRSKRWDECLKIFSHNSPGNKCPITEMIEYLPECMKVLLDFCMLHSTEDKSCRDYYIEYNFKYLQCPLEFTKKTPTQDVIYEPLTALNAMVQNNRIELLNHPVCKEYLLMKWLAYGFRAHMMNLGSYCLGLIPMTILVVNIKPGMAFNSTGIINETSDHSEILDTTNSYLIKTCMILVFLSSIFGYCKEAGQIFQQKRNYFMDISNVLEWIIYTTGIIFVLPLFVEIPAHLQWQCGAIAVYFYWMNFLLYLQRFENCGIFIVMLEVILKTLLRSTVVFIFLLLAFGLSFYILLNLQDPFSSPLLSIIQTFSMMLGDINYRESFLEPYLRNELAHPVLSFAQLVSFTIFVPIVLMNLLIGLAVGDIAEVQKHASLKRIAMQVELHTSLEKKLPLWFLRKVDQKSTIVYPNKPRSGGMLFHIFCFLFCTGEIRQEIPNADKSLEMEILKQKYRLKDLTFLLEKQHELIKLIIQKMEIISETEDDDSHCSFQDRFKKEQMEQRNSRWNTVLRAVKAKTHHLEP

`C/C=C(/C=O)[C@@H](CC=O)CC(=O)OCCc1ccc(O)cc1` [OC, (−)-oleocanthal]: the EC50 (commonly the concentration at which the effect is half-maximal) turned out to be 2800 nM.
